Assay results from ChEMBL document CHEMBL5528001, “Synthetic product-based approach toward potential antileishmanial drug development” (Eur J Med Chem, 2024).
≈ marks a conversion by molar mass, not a printed value.

How the values were obtained:
Leishmania major [1] = assay: Antileishmanial activity against Leishmania major MHOM/IL/80/Friendlin assessed as reduction in parasite growth incubated for 48 hrs by MTT assay; format: functional, organism-based
[2] = Antileishmanial activity against Leishmania infantum BCN-150 promastigotes assessed as reduction in parasite growth incubated for 48 hrs by MTT assay; format: functional
HT-29 = assay: Antiproliferative activity against human HT-29 cells assessed as reduction in cell viability incubated for 48 hrs by MTT assay; format: functional, cell-based; conditions: HT-29, 48 h
NCI-H1299 = assay: Antiproliferative activity against human NCI-H1299 cells assessed as reduction in cell viability incubated for 48 hrs by MTT assay; format: functional, cell-based; conditions: NCI-H1299, 48 h
Leishmania infantum [3] = assay: Antileishmanial activity against Leishmania infantum MON-1 promastigotes assessed as reduction in parasite viability measured after 48 hrs by MTT assay; format: functional, organism-based; conditions: MON-1, 48 h
Leishmania donovani [4] = assay: Antileishmanial activity against Leishmania donovani promastigotes assessed as inhibition of parasite growth; format: functional, organism-based
Leishmania aethiopica = assay: Antileishmanial activity against Leishmania aethiopica amastigotes assessed as inhibition of parasite growth measured after 24 hrs by Alamar blue based analysis; format: functional, organism-based
Leishmania tropica = assay: Antileishmanial activity against Leishmania tropica promastigotes incubated for 24 hrs measured by alamar blue staining based fluorescence analysis; format: functional, organism-based
[5] = Selectivity index, ratio of CC50 for human HepG2 cells to EC50 for GFP-expressing Leishmania infantum intracellular amastigotes infected in human THP-1 derived macrophage cells; format: toxicity, cell-based; conditions: read-out: Ratio CC50/EC50
Leishmania major [6] = assay: Antileishmanial activity against Leishmania major amastigotes assessed as reduction in parasite growth incubated for 48 hrs by resazurin dye based analysis; format: functional, organism-based
Leishmania major [7] = assay: Antileishmanial activity against Leishmania major amastigotes assessed as reduction in parasite viability measured for 72 hrs by Giemsa-staining based microscopic analysis; format: functional, organism-based
Leishmania major [8] = assay: Antileishmanial activity against Leishmania major promastigotes assessed as reduction in parasite viability measured after 72 hrs by Giemsa-staining based microscopic analysis; format: functional, organism-based
Leishmania amazonensis [9] = assay: Antileishmanial activity against Leishmania amazonensis promastigotes assessed as inhibition of parasite growth; format: functional; design: scale not given: the % may be the effect or the level left
Leishmania braziliensis = assay: Antileishmanial activity against Leishmania braziliensis MHOM/BR/75/M2903 strain promastigotes assessed as reduction in cell viability incubated for 48 hrs by MTT assay; format: functional, organism-based; conditions: MHOM/BR/75/M2903, 48 h
Leishmania donovani [10] = assay: Antileishmanial activity against Leishmania donovani amastigotes infected in J774.A1 macrophage assessed as inhibition of parasite growth by luciferase assay; format: functional, organism-based
Leishmania donovani [11] = assay: Antileishmanial activity against Leishmania donovani amastigotes infected in human THP-1 cells assessed as inhibition of parasite infection incubated for 72 hrs by DAPI staining based assay; format: functional, organism-based; conditions: THP-1, 72 h
Leishmania major [12] = assay: Antileishmanial activity against Leishmania major assessed as reduction in parasite growth; format: functional, organism-based
Leishmania amazonensis [13] = assay: Antileishmanial activity against Leishmania amazonensis IFLA/BR/1967/PH8 amastigotes infected in murine peritoneal macrophages incubated for 24 hrs by Giemsa staining based analysis; format: functional, organism-based; conditions: IFLA/BR/1967/PH8, 24 h
Leishmania donovani [14] = assay: Antileishmanial activity against Leishmania donovani amastigotes; format: functional, organism-based
Leishmania donovani [15] = assay: Antileishmanial activity against Leishmania donovani amastigotes assessed as parasite growth inhibition incubated for 72 hrs by MTS assay; format: functional, organism-based
[16] = Cytotoxicity against HEK293 cells assessed as reduction in cell viability incubated for 6 days by CellTiter-Glo luminescent cell viability assay; format: toxicity, cell-based; conditions: human
Leishmania donovani [17] = assay: Antileishmanial activity against Leishmania donovani MHOM/IN/00/DEVI assessed as inhibition of parasite growth measured for 48 hrs by MTT assay; format: functional, organism-based
HepG2 [18] = assay: Cytotoxicity against human HepG2 cells assessed as reduction in cell growth measured after 48 hrs by SRB assay; format: functional
Leishmania infantum [19] = assay: Antileishmanial activity against Leishmania infantum MHOM/BR/1972/BH46 promastigotes assessed as reduction in parasite viability measured for 48 hrs by PI staining based flow cytometry analysis; format: functional, organism-based; conditions: MHOM/BR/1972/BH46, 48 h
Leishmania infantum [20] = assay: Antileishmanial activity against Leishmania infantum MHOM/BR/1972/BH46 amastigotes assessed as reduction in cell viability measured for 48 hrs by PI staining based flow cytometry analysis; format: functional, organism-based; conditions: MHOM/BR/1972/BH46, 48 h
HepG2 [21] = assay: Antiproliferative activity against human HepG2 cells assessed as reduction in cell viability incubated for 72 hrs by MTT assay; format: functional, cell-based; conditions: HepG2, 72 h
J774.A1 = assay: Cytotoxicity against mouse J774.A1 cells assessed as reduction in cell viability incubated for 72 hrs by MTT assay; format: functional
Leishmania infantum [22] = assay: Antileishmanial activity against Leishmania infantum promastigote assessed as reduction in parasite growth after 72 hrs by MTT assay; format: functional, organism-based
Leishmania donovani [23] = assay: Antileishmanial activity against Leishmania donovani promastigotes assessed as parasitic proliferation inhibition incubated for 3 days by resazurin dye based assay; format: functional, organism-based; conditions: Leishmania donovani, 72 h; read-out: IC50
Leishmania donovani [24] = assay: Antileishmanial activity against Leishmania donovani MHOM/SD/62/1S assessed as inhibition of parasite growth by resazurin/alamar blue fluorometric assay; format: functional, organism-based
Leishmania donovani [25] = assay: Antileishmanial activity against Leishmania donovani 9515 promastigotes assessed as inhibition of parasite growth incubated for 48 hrs by resazurin dye based assay; format: functional, organism-based; conditions: Leishmania donovani, 9515, 48 h
Leishmania major [26] = assay: Antileishmanial activity against Leishmania major IR-173 promastigotes assessed as inhibition of parasite growth incubated for 48 hrs by resazurin dye based assay; format: functional, organism-based; conditions: IR-173, 48 h
Leishmania amazonensis [27] = assay: Antileishmanial activity against Leishmania amazonensis MHOM/BR/75/Josefa promastigotes assessed as reduction in parasite viability after 72 hrs by Neubauer chamber counting method; format: functional, organism-based
Leishmania mexicana = assay: Antileishmanial activity against Leishmania mexicana promastigotes; format: functional, organism-based

**Q.** Which IC50 (Leishmania major [1]) does the source give for `N#C[Se]/C=C/c1ccccc1` here?
**A.** 3.3 µM

**Q.** And the IC50 [2]?
**A.** 3.7 µM

**Q.** And the IC50 (HT-29)?
**A.** 11.9 µM

**Q.** What about the IC50 (NCI-H1299) of the same compound?
**A.** 11.9 µM

**Q.** Which EC50 (Leishmania infantum [3]) does the source give for `CCOC(=O)c1cc2c([nH]c3ccccc32)c(-c2ccccn2)n1` here?
**A.** > 29.8 µM

**Q.** With `Cc1cc(O)c(C(=O)Nc2ccccc2)c(=O)n1Cc1cccc(Cl)c1Cl` as the compound, how does the IC50 (Leishmania donovani [4]) read?
**A.** 55 µM

**Q.** With `Cc1ccc(-n2cc(C3N[C@H](C(N)=O)CS3)c(-c3ccccc3)n2)cc1` (stereo partly specified) as the compound, how does the IC50 (Leishmania aethiopica) read?
**A.** 1.02 µg/mL (≈ 2.8 µM)

**Q.** For `Nc1ccn(C(=O)C2CCC3(CC2)OOC2(O3)C3CC4CC(C3)CC2C4)n1` (stereo unspecified), which IC50 (Leishmania tropica) is on record?
**A.** 161 µM

**Q.** And the selectivity ratio [5]?
**A.** < 5

**Q.** Which IC50 (Leishmania major [6]) does the source give for `CC(C)(C)c1ccc(COc2ccc(C(=O)N/N=C\c3ccc([N+](=O)[O-])o3)cc2)cc1` here?
**A.** 0.19 µM

**Q.** Which IC50 (Leishmania donovani [4]) does the source give for `Cc1cc(O)c(C(=O)Nc2ccccc2)c(=O)n1Cc1ccc(Cl)cc1` here?
**A.** 55 µM

**Q.** With `CCOC(=O)C1=C(C)NC(C)=C(C(=O)OCC)C1c1cccc(Cl)c1` as the compound, how does the EC50 (Leishmania major [7]) read?
**A.** 2.2 µM

**Q.** And the EC50 (Leishmania major [8])?
**A.** 10.5 µM

**Q.** Which Activity (Leishmania amazonensis [9]) does the source give for `CC(C)CC1NC(=S)NC1=O` (stereo unspecified) here?
**A.** 32%

**Q.** Which IC50 (Leishmania braziliensis) does the source give for `COc1ccc(-n2cc(CCC(=O)OC3=C(C=C(C)C)C(=O)c4ccccc4C3=O)nn2)cc1` here?
**A.** 15.9 µM

**Q.** For `CC(=O)N1N=C(c2ccccc2)CC1c1cn(-c2ccc(C)cc2)nc1-c1ccccc1` (stereo unspecified), which IC50 (Leishmania donovani [10]) is on record?
**A.** 0.05 µM

**Q.** What about the IC50 (Leishmania donovani [11]) of the same compound?
**A.** 1 µM

**Q.** Which IC50 (Leishmania major [12]) does the source give for `Cc1nc2ccc(Cl)cn2c1C(=O)N1CCN(Cc2cn(-c3ccc(Br)cc3)nn2)CC1` here?
**A.** 15.1 µM

**Q.** Which EC50 (Leishmania major [7]) does the source give for `COC(=O)C1=C(C)NC(C)=C(C(=O)OC)C1c1cccc(Cl)c1` here?
**A.** 5.4 µM

**Q.** Which IC50 (Leishmania amazonensis [13]) does the source give for `O=C(C[Se]CC(=O)Nc1ccc([N+](=O)[O-])cc1)Nc1ccc([N+](=O)[O-])cc1` here?
**A.** 10.8 µM

**Q.** Which IC50 (Leishmania donovani [14]) does the source give for `C#CCN1C(=O)CN(/N=C/c2ccc([N+](=O)[O-])o2)C1=O` here?
**A.** 0.39 µM

**Q.** And the IC50 (Leishmania donovani [15])?
**A.** 3.03 µM

**Q.** What about the IC50 at 6 days [16] of the same compound?
**A.** 88.5 µM

**Q.** With `C(=N/CCCN(N1CCOCC1)N1CCOCC1)/c1cc(-c2ccccc2)c2ccc3c(-c4ccccc4)cc(/C=N/CCCN(N4CCOCC4)N4CCOCC4)nc3c2n1` as the compound, how does the IC50 (Leishmania donovani [17]) read?
**A.** 2.52 µM

**Q.** And the CC50 (HepG2 [18])?
**A.** 1.64 µM

**Q.** For `O=C1NC(=S)N2CCCC12` (stereo unspecified), which Activity (Leishmania amazonensis [9]) is on record?
**A.** 20%

**Q.** For `CCCc1cc(OC)c2oc(=O)c(C(=O)c3ccc([N+](=O)[O-])cc3)cc2c1`, which IC50 (Leishmania infantum [19]) is on record?
**A.** 12 µM

**Q.** And the IC50 (Leishmania infantum [20])?
**A.** 6.8 µM

**Q.** For `CC(C)c1ccc(COc2ccc(C(=O)N/N=C\c3ccc([N+](=O)[O-])o3)cc2)cc1`, which IC50 (Leishmania major [6]) is on record?
**A.** 0.62 µM

**Q.** With `Cc1cc(C)cc(-n2cc(CNC(=O)c3c(C)nc4c5ccccc5c5ccccc5n34)nn2)c1` as the compound, how does the EC50 (HepG2 [21]) read?
**A.** < 30 µM

**Q.** What does the source list for `CC1(C)CC(=O)c2cc(CNC(=O)CCCCCCCCBr)ccc2S1`?
**A.** CC50 (J774.A1): 58 µM; IC50 (Leishmania infantum [22]): 7.2 µM

**Q.** What does the source list for `CCCCCCCn1cc(CN2C(=O)CN(/N=C/c3ccc([N+](=O)[O-])o3)C2=O)nn1`?
**A.** IC50 (Leishmania donovani [14]): 0.38 µM; IC50 (Leishmania donovani [15]): 0.18 µM; IC50 at 6 days [16]: > 100 µM

**Q.** For `CCOC(=O)C1=CNC(=O)NC1c1ccc(C)cc1` (stereo in doubt; 80), which IC50 (Leishmania donovani [23]) is on record?
**A.** 29.3 µg/mL (≈ 113 µM)

**Q.** What does the source list for `O=C(N/N=C/c1ccc([N+](=O)[O-])o1)c1ccc(OCc2ccccc2)cc1`?
**A.** IC50 (Leishmania donovani [24]): 4.53 µM; IC50 (Leishmania donovani [25]): 4.48 µM; IC50 (Leishmania major [26]): 38.5 µM

**Q.** With `CC1(C)CC(=O)c2cc(CNC(=O)C/C=C/c3ccccc3)ccc2S1` as the compound, how does the CC50 (J774.A1) read?
**A.** 31.6 µM

**Q.** What about the IC50 (Leishmania infantum [22]) of the same compound?
**A.** 10.5 µM

**Q.** With `CN(C)c1ccc(-c2nc(C3=NCCO3)cc3c2[nH]c2ccccc23)cc1` as the compound, how does the IC50 (Leishmania amazonensis [27]) read?
**A.** 6.1 µM

**Q.** Which IC50 (Leishmania braziliensis) does the source give for `CC(C)=CC1=C(OC(=O)CCc2cn(-c3cccc(Cl)c3)nn2)C(=O)c2ccccc2C1=O` here?
**A.** 16.7 µM

**Q.** Which IC50 (Leishmania major [12]) does the source give for `CCCCCCCCCn1cc(CN2CCN(C(=O)c3c(C)nc4ccc(C)cn34)CC2)nn1` here?
**A.** 15.1 µM

**Q.** With `Cc1nc2ccc(Cl)cn2c1C(=O)N1CCN(Cc2cn(-c3ccc(Cl)cc3)nn2)CC1` as the compound, how does the IC50 (Leishmania major [12]) read?
**A.** 15.1 µM

**Q.** Which IC50 (Leishmania mexicana) does the source give for `COc1cc(C(=O)/C=C/c2ccc([N+](=O)[O-])cc2)ccc1OCC=C(C)C` here?
**A.** 8.22 µM
